Laboratory results as given in ChEMBL document CHEMBL5634119, “Design and synthesis of 4th generation EGFR inhibitors against human triple (Del19/T790M/C797S) mutation” (Eur J Med Chem, 2023).

Legend:
[1] = Inhibition of EGFR del19/T790M/C797S triple mutant in mouse BAF3 cells assessed as reduction in cell proliferation incubated for 3 days by celltiter-glo assay; assay type: cell-based; conditions: BaF3, 72 h
[2] = Inhibition of wild type EGFR in mouse BAF3 cells assessed as reduction in cell proliferation incubated for 3 days by celltiter-glo assay; assay type: cell-based; conditions: BaF3, 72 h
[3] = system: NCI-H1975; assay: Antiproliferative activity against human NCI-H1975 cells harboring EGFR L858R/T790M mutant incubated for 72 hrs by SRB assay; assay type: functional, cell-based; conditions: NCI-H1975, 72 h
[4] = system: HCC827; assay: Antiproliferative activity against human HCC827 cells harboring EGFR Del19 mutant incubated for 72 hrs by SRB assay; assay type: functional, cell-based; conditions: HCC827, 72 h
[5] = molecular target: Epidermal growth factor receptor (Homo sapiens, UniProt P00533, C797S/EX19DEL/T790M); assay: Inhibition of EGFR del19/T790M/C797S triple mutant (unknown origin) in presence of ATP by FRET assay
[6] = system: PC-9; assay: Antiproliferative activity against human PC-9 cells harboring EGFR Del19/T790M/C797S mutant incubated for 72 hrs by SRB assay; assay type: functional, cell-based; conditions: PC-9, 72 h
[7] = system: NCI-H1975; assay: Antiproliferative activity against human NCI-H1975 cells harboring EGFR L858R/T790M/C797S mutant incubated for 72 hrs by SRB assay; assay type: functional, cell-based; conditions: NCI-H1975, 72 h
[8] = molecular target: Epidermal growth factor receptor (Homo sapiens, UniProt P00533, C797S/L858R/T790M); assay: Inhibition of EGFR L858R/T790M/C797S triple mutant (unknown origin) in presence of ATP by FRET assay
[9] = system: A-431; assay: Antiproliferative activity against human A-431 cells harboring wild type EGFR incubated for 72 hrs by SRB assay; assay type: functional, cell-based; conditions: A-431, 72 h
[10] = molecular target: Epidermal growth factor receptor (Homo sapiens, UniProt P00533); assay: Inhibition of wild type EGFR (unknown origin) in presence of ATP by FRET assay
Sequence of Epidermal growth factor receptor (Homo sapiens, UniProt P00533) (P00533 whole entry): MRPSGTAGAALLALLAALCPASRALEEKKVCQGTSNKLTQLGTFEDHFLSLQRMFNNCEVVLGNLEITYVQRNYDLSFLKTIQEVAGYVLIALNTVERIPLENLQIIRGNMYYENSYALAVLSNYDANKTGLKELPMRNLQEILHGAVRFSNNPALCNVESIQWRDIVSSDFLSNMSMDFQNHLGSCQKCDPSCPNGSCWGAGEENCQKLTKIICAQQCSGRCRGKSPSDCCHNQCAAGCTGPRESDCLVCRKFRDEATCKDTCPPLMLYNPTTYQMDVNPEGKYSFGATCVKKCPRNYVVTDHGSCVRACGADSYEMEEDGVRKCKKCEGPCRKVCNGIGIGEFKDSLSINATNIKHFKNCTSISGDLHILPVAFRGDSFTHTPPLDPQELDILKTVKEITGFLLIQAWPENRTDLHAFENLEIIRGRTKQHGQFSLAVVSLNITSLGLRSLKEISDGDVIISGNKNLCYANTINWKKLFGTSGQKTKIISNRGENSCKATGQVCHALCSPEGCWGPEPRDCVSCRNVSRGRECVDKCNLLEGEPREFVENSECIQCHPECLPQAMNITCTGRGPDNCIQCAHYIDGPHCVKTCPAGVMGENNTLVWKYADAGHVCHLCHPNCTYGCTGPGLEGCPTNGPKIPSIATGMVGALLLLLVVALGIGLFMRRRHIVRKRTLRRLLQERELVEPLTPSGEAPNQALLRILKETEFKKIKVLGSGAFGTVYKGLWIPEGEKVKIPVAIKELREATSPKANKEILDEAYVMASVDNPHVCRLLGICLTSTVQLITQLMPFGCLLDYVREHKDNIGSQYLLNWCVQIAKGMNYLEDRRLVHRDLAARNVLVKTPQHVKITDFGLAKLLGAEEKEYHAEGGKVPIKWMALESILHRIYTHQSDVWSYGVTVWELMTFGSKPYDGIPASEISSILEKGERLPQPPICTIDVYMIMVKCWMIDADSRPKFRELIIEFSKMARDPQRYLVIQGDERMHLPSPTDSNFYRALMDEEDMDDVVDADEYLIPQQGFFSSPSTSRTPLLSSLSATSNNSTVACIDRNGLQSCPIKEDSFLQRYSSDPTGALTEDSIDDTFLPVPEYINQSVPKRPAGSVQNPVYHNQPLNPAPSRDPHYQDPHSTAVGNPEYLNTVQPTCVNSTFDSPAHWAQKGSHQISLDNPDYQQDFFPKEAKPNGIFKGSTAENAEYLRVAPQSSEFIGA

Sequence of Epidermal growth factor receptor (Homo sapiens, UniProt P00533, C797S/L858R/T790M) (P00533 25-1210 T790M/C797S/L858R limits assumed): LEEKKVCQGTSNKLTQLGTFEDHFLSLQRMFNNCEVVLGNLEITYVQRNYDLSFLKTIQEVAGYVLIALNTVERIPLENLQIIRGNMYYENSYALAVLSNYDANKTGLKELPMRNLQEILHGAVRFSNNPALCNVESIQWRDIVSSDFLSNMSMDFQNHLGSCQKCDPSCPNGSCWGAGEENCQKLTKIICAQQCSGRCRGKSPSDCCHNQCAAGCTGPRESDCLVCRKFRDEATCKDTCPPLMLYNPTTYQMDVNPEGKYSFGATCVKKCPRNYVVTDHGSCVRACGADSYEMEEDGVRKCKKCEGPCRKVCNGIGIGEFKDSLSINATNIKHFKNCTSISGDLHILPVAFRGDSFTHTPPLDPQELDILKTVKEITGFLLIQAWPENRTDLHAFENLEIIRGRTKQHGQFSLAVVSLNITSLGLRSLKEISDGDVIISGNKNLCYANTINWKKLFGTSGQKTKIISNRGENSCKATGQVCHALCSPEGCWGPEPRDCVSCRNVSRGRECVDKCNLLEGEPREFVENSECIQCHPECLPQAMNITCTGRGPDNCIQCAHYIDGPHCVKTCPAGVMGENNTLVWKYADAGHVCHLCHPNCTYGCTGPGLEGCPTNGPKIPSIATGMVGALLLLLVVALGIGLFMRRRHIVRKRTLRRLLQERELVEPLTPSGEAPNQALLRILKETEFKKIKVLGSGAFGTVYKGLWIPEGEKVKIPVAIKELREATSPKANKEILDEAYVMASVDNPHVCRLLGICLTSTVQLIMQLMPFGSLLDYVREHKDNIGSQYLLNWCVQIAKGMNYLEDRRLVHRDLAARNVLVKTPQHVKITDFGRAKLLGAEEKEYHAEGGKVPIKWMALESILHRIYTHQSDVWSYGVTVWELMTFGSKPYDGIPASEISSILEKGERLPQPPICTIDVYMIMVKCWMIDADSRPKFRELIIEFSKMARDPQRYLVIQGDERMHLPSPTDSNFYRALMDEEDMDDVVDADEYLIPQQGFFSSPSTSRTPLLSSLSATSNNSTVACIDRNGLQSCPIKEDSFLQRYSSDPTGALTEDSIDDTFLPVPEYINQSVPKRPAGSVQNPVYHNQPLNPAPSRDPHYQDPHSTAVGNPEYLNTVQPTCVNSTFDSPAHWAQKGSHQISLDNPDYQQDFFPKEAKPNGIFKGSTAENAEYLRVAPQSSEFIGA
Sequence of Epidermal growth factor receptor (Homo sapiens, UniProt P00533, C797S/EX19DEL/T790M) (P00533 whole entry, looked up, stated change not applied): as the sequence (P00533 whole entry) above

| Compound | IC50 [1] [µM] | IC50 [2] [µM] | other results |
| --- | --- | --- | --- |
| COc1cc(Nc2nc(Nc3ccccc3N(C)S(C)(=O)=O)c3cc[nH]c3n2)ccc1N1CCN(C)CC1 | 0.0367 | 0.0414 | – |
| CCCN1CCN(C2CCN(c3ccc(Nc4nc(Nc5ccccc5N(C)S(C)(=O)=O)c5cc[nH]c5n4)cc3F)CC2)CC1 | 0.0842 | 0.754 | – |
| CC(C)N(c1ccccc1Nc1nc(Nc2ccc(N3CCN(C)CC3)c(F)c2)nc2[nH]ccc12)S(C)(=O)=O | 0.0712 | 0.307 | – |
| Cc1cc(Nc2nc(Nc3ccccc3N(C)S(C)(=O)=O)c3cc[nH]c3n2)ccc1N1CCN(C)CC1 | 0.0308 | 0.0417 | – |
| CCS(=O)(=O)N(C)c1ccccc1Nc1nc(Nc2ccc(N3CCN(C)CC3)c(F)c2)nc2[nH]ccc12 | 0.0164 | 0.238 | – |
| CN1CCN(c2ccc(Nc3nc(Nc4ccccc4N(C)S(C)(=O)=O)c4cc[nH]c4n3)cc2Cl)CC1 | 0.0538 | 0.0474 | – |
| CC(C)N1CCN(c2ccc(Nc3nc(Nc4ccccc4N(C)S(C)(=O)=O)c4cc[nH]c4n3)cc2F)CC1 | 0.157 | 0.67 | – |
| CN(c1ccccc1Nc1nc(Nc2ccc(N3CCN(C(=O)OC(C)(C)C)CC3)c(F)c2)nc2[nH]ccc12)S(C)(=O)=O | 0.426 | 2.4 | – |
| CC(C)S(=O)(=O)N(C)c1ccccc1Nc1nc(Nc2ccc(N3CCN(C)CC3)c(F)c2)nc2[nH]ccc12 | 0.049 | 0.185 | – |
| CN1CCN(c2ccc(Nc3nc(Nc4ccccc4NS(C)(=O)=O)c4cc[nH]c4n3)cc2F)CC1 | 0.125 | 2.64 | – |
| CN1CCN(c2ccc(Nc3nc(Nc4ccccc4N(C)S(C)(=O)=O)c4cc[nH]c4n3)cc2F)CC1 | 0.0225 | 0.267 | IC50 [3]: 0.185 µM; IC50 [4]: 0.23 µM; IC50 [5]: 0.004 µM; IC50 [6]: 0.208 µM; IC50 [7]: 0.289 µM; IC50 [8]: 0.0202 µM; IC50 [9]: 0.263 µM; IC50 [10]: 1.53 µM |
| CN(c1ccccc1Nc1nc(Nc2ccc(N3CCCCC3)cc2)nc2[nH]ccc12)S(C)(=O)=O | 0.566 | 1.24 | – |
| CN1CCN(c2ccc(Nc3nc(Nc4ccccc4N(C)S(C)(=O)=O)c4cc[nH]c4n3)c(F)c2)CC1 | 0.157 | 0.202 | – |
| CC(C)N1CCN(C2CCN(c3ccc(Nc4nc(Nc5ccccc5N(C)S(C)(=O)=O)c5cc[nH]c5n4)cc3F)CC2)CC1 | 0.0824 | 0.62 | – |
